Legend:
Type in all cases: in vivo, human
[1] = Example 3: Phase 1 study of ketoconazole 200 mg twice daily with mifepristone 600 mg once daily with food, plasma PK incl. cross-study comparison; details: for mean increase / change in exposure on co-administration with ketoconazole: 600 mg mifepristone once daily with 200 mg ketoconazole twice daily; for effect of ketoconazole on exposure (90% CI vs standard 80:125 interval): Day 17 vs Day 12; for concentrations on Day 17 compared with Day 12: Day 17 with 200 mg ketoconazole twice daily, Day 12 mifepristone alone; for AUC0-24 Ratio % Test/Ref (cross-study, geometric mean ratio) / Cmax Ratio % Test/Ref (cross-study, geometric mean ratio): Test: Present Study Day 17 600 mg mifepristone OD + 200 mg Ketoconazole BID, Reference: Historic Study Day 7 1200 mg mifepristone OD alone, after 34% fat meal
[2] = Example 2: effect of a 400 mg single dose of ketoconazole on PK of an 8-day regimen of 300 mg or 600 mg OD mifepristone, moderate fat breakfast
Protocol: This was an open-label study in healthy male subjects. […] The 400 mg single dose of ketoconazole was given to all subjects on day 8.
METHODOLOGY: Twelve subjects were enrolled, six in Cohort 1 and 6 in Cohort 2.
Subjects were discharged on Day 11.
Subjects were discharged on Day 11. Subjects in both cohorts returned to study center on Day 13 for safety monitoring, collection of the 120-hour PK draw, and completion of the Termination Visit procedures, followed by discharge from the study. To the extent possible, any adverse events deemed study drug-related and that were ongoing at the time of discharge from the study were followed-up to resolution or until a determination was made that the unresolved event was stable.
DIAGNOSIS AND MAIN […] FOR INCLUSION: Healthy male volunteers between the ages of 18 to 45 years of age with a body mass index (BMI) ranging between 19 and 32 kg/m2 and a weight of at least 60 kg (132 lbs) were enrolled. Subjects had no clinically significant abnormal findings on the physical examination, ECG, blood pressure, heart rate, medical history, or clinical laboratory results during screening. The QTc interval at screening was less than 450 msec.
DURATION OF TREATMENT: Up to a total of 28 days, including up to 2 weeks screening, dosing on Days 1-8, safety observation, and PK sample collection through Day 13.
Additionally, comparisons were made between the PK results of cohort 1 and 2. Pharmacokinetic parameters Cmax, T1/2 and total AUC were calculated for plasma concentrations of ketoconazole following the single dose on Day 8. Descriptive statistics (count, mean, median, standard deviation, minimum, maximum, and % coefficient of variation) were provided. Ketoconazole concentrations were listed and summarized. GM means of Cmax and total AUC were compared for the single dose in this study to the combined data of reported 400 mg single doses of ketoconazole of healthy subjects from the literature.

[3] = Example 1: safety (adverse events, laboratory tests, ECG); details: mifepristone 300 mg single dose with ketoconazole for 14 days
Protocol: In cohort 1, six subjects received ketoconazole 400 mg OD for 14 days.
In cohort 2, six subjects received ketoconazole 200 mg BID for 14 days. […] All 12 subjects completed the study. Cohort 2 subjects participated in a Screening visit to assess eligibility and a check-in Day (Day −1) during which eligibility was re-confirmed. […] The evening of Day 1, subjects received 200 mg oral ketoconazole. Subjects remained in the clinic on Days 2, 3 and 4 to receive 200 mg BID oral ketoconazole, and for safety evaluation and collection of blood pharmacokinetic (PK) samples. Subjects were discharged from the clinic on Day 4 following evening administration of 200 mg oral ketoconazole, and returned to the clinic the morning and evening of Days 5 through 13 to receive 200 mg BID oral ketoconazole. Morning doses of ketoconazole on Days 0-13 were administered in the fasted state.
Subjects in both cohorts returned to the study center on Day 15 for safety monitoring, and completion of the Termination Visit procedures, followed by discharge from the study. Safety was assessed by spontaneously reported adverse events, physical examinations, and routine clinical laboratory tests. To the extent possible, any adverse events deemed study drug-related and that were ongoing at the time of discharge from the study were followed-up to resolution or until a determination is made that the unresolved event was stable.

[4] = Test: Day 17 600 mg mifepristone OD + 200 mg Ketoconazole BID, Reference: Day 12 600 mg mifepristone OD
[5] = single 400 mg ketoconazole dose on Day 8
[6] = 400 mg ketoconazole (200 mg twice per day) concomitantly with 600 mg mifepristone per day, fifth day
[7] = Test: Day 17 600 mg mifepristone OD + 200 mg Ketoconazole BID, Reference: Day −1 200 mg Ketoconazole Single Dose

mean increase / change in exposure on co-administration with ketoconazole [1] | effect of ketoconazole on exposure (90% CI vs standard 80:125 interval) [1] | concentrations on Day 17 compared with Day 12 [1] | AUC0-24 Ratio % Test/Reference (geometric mean ratio) [1, 4] | Cmax Ratio % Test/Reference (geometric mean ratio) [1, 4] | AUC0-24 Ratio % Test/Ref (cross-study, geometric mean ratio) [1] | Cmax Ratio % Test/Ref (cross-study, geometric mean ratio) [1] | mean metabolite exposure compared with mifepristone ([2]; 300 or 600 mg OD mifepristone, Days 7-13) | share of total steady-state AUC0-24 of mifepristone, RU42633, RU42698, RU42848 ([1]; in the presence of ketoconazole) | share of total steady-state AUC0-24 of mifepristone, RU42633, RU42698, RU42848 ([1]; mifepristone alone) | AUCinf higher on 600 mg OD mifepristone regimen relative to 300 mg OD [2, 5] | Cmax higher on 600 mg OD mifepristone regimen relative to 300 mg OD [2, 5] | half-life on either mifepristone regimen ([2]; single 400 mg ketoconazole dose on Day 8, mifepristone 300 vs 600 mg OD) | increase in ketoconazole AUC [1, 6] | increase in ketoconazole Cmax [1, 6] | AUC Ratio % Test/Reference (geometric mean ratio) [1, 7] | Cmax Ratio % Test/Reference (geometric mean ratio) [1, 7] | Structure (SMILES) | TEAEs considered by the investigator to be related to the drug [3]
little change | not affected | similar | 102.33% | 105.73% | 91.34% | 96.31% |  |  |  |  |  |  |  |  |  |  | CC#C[C@]1(O)CC[C@H]2[C@@H]3CCC4=CC(=O)CCC4=C3[C@@H](c3ccc(NC)cc3)C[C@@]21C [RU 42633, (8S,11R,13S,14S,17S)-17-hydroxy-13-methyl-11-[4-(methylamino)phenyl]-17-prop-1-ynyl-1,2,6,7,8,11,12,14,15,16-decahydrocyclopenta[a]phenanthren-3-one] | 
little change | not affected | similar | 94.88% | 95.48% | 81.43% | 82.45% |  |  |  |  |  |  |  |  |  |  | CC#C[C@]1(O)CC[C@H]2[C@@H]3CCC4=CC(=O)CCC4=C3[C@@H](c3ccc(N)cc3)C[C@@]21C [RU 42848, (8S,11R,13S,14S,17S)-11-(4-aminophenyl)-17-hydroxy-13-methyl-17-prop-1-ynyl-1,2,6,7,8,11,12,14,15,16-decahydrocyclopenta[a]phenanthren-3-one] | 
approximately 70% | increased | higher | 166.86% | 169.13% | 118.18% | 116.55% | lower | 13% | 9% |  |  |  |  |  |  |  | CN(C)c1ccc([C@H]2C[C@@]3(C)[C@@H](CC[C@@]3(O)C#CCO)[C@@H]3CCC4=CC(=O)CCC4=C32)cc1 [RU 42698, (8S,11R,13S,14S,17S)-11-[4-(dimethylamino)phenyl]-17-hydroxy-17-(3-hydroxyprop-1-ynyl)-13-methyl-1,2,6,7,8,11,12,14,15,16-decahydrocyclopenta[a]phenanthren-3-one] | 
 |  |  |  |  |  |  |  |  |  | 36% | 37% | not appreciably different | 253% | 365% | 365.36% | 252.71% | CC(=O)N1CCN(c2ccc(OCC3COC(Cn4ccnc4)(c4ccc(Cl)cc4Cl)O3)cc2)CC1 (centres unmarked) [ketoconazole, 1-acetyl-4-[4-[[2-(2,4-dichlorophenyl)-2-[(1H-imidazol-1-yl)-methyl]-1,3-dioxolan-4-yl]methoxy]phenyl]piperazine] | One TEAE of insomnia

— US20170281651A1, “CONCOMITANT ADMINISTRATION OF GLUCOCORTICOID RECEPTOR MODULATORS AND CYP3A OR STEROIDOGENESIS INHIBITORS” (Corcept Therapeutics, Inc., priority 2017, published 2017)
